Measured values published in article PMC2853757 (Analytical biochemistry, 2009).

Assays:
[1] = biological target: V-ATPase (vacuolar proton translocating ATPase; catalytic subunit A) (Saccharomyces cerevisiae, UniProt P16140+P17255); experiment: ATP hydrolysis; type: biochemical
[2] = biological target: V-ATPase (vacuolar proton translocating ATPase) (Saccharomyces cerevisiae, UniProt P25515+P32563); experiment: BCECF flow cytometry dose response in living yeast; type: cell-based

Chain of V-ATPase (vacuolar proton translocating ATPase; catalytic subunit A) (P17255 2-283): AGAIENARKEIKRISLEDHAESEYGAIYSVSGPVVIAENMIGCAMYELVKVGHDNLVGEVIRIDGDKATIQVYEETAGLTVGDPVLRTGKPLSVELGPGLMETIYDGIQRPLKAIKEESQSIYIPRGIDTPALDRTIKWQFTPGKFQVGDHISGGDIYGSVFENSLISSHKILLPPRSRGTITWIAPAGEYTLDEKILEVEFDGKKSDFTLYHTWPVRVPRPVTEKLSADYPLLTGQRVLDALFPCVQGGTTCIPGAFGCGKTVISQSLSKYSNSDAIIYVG
Chain of V-ATPase (vacuolar proton translocating ATPase; catalytic subunit A) (P17255 738-1071): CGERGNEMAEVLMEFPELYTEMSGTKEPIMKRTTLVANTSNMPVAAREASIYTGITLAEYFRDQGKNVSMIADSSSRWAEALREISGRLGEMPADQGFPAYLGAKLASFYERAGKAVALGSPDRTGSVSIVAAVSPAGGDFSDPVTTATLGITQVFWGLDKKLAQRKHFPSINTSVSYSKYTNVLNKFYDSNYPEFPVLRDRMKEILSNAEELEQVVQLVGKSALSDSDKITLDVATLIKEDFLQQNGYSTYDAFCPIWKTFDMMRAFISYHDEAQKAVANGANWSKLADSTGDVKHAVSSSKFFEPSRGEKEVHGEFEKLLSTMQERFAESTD
Chain of V-ATPase (vacuolar proton translocating ATPase; catalytic subunit A) (P16140 2-517): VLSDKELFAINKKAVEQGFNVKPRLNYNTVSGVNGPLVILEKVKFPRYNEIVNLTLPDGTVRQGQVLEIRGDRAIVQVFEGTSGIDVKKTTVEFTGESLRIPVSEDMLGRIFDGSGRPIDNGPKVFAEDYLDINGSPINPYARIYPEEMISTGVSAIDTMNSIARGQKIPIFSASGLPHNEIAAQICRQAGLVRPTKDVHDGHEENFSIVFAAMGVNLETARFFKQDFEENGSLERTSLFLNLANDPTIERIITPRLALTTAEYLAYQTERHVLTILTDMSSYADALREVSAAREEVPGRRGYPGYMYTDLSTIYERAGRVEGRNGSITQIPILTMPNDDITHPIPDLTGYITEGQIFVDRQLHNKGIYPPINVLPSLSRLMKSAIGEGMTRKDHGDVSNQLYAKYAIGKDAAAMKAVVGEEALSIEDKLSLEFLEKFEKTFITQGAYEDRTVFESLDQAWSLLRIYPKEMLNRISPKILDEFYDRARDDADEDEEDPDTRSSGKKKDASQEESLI
Chain of V-ATPase (vacuolar proton translocating ATPase; catalytic subunit A) (P25515 whole entry partner): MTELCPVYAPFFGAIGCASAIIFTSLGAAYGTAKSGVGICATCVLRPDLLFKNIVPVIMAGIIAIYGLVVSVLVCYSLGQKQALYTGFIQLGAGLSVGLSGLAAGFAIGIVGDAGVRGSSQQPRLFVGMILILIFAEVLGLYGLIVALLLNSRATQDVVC
Chain of V-ATPase (vacuolar proton translocating ATPase; catalytic subunit A) (P32563 2-840 partner): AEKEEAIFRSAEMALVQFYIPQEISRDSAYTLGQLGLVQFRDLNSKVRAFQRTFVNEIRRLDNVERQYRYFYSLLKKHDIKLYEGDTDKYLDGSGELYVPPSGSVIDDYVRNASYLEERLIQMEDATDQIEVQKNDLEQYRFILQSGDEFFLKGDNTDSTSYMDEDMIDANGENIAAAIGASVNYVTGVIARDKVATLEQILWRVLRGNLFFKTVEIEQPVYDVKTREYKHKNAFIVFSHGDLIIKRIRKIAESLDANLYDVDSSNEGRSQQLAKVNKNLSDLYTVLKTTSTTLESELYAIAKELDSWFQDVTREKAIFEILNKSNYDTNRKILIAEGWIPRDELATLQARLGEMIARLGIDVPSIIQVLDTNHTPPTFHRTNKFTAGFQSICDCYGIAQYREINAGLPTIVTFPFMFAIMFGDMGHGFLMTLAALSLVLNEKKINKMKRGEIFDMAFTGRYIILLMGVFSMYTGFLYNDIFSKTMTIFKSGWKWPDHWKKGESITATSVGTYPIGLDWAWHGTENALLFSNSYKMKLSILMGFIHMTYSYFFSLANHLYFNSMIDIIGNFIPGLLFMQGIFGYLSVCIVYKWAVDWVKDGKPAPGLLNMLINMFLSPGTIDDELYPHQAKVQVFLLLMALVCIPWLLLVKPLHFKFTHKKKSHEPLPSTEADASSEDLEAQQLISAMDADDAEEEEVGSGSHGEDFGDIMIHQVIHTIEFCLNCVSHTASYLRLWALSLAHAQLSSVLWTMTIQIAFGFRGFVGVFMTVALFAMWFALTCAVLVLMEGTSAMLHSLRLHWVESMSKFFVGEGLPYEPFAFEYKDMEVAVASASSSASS

Row | EC50 [1] [µM] | Structure (SMILES) | EC50 [2] [µM]
1 | 24.7 | CCN(CC)C(=S)SSC(=S)N(CC)CC [disulfiram] | 
2 |  | C/C=C/[C@H]1O[C@@](O)([C@@H](C)[C@H](O)[C@H](C)[C@H]2OC(=O)/C(OC)=C/C(C)=C/[C@@H](C)[C@@H](O)[C@@H](CC)[C@@H](O)[C@H](C)C/C(C)=C/C=C/[C@@H]2OC)C[C@@H](O[C@H]2C[C@@H](O)[C@H](OC(N)=O)[C@@H](C)O2)[C@@H]1C [concanamycin A] | 2.1 to 2.27
